Test results published in patent publication US12576083B2, “Combinational therapy of LSD1 inhibitors with P21 activators in the treatment of cancer” (Istituto Europeo di Oncologia S.r.l., priority 2017, dated 2026).

Test system: p21
Assay: p21 expression in NB4 cells treated with HDAC inhibitors
Type: cell-based
Settings: with p21-shRNA or scramble shRNA
Procedure: FIGS. 9A-9C. […] (FIG. 9B) NB4 cells were infected with SCR (control) or P21 shRNA, and knockdown was monitored by qPCR. Values are normalized against GAPDH. (FIG. 9C) Monitoring of p21 expression upon the indicated treatments. (SCR=Scramble shRNA, NI=Not Infected, HDACi=HDAC inhibitor=SAHA or TSA).
NB4 cells were treated with HDAC inhibitors, trichostatin A (TSA) and suberoylanilide hydroxamic acid (SAHA), in combination with p21-shRNA or scramble shRNA (SCR). NB4 cells with p21 knock-down without HDAC inhibitor treatment (p21KD-DMSO), NB4 cells without p21 knock-down and without HDAC inhibitor treatment (Scr-DMSO), untreated UF1 cells (UF1-DMSO) were included as control.

CC(/C=C/C(=O)NO)=C\[C@@H](C)C(=O)c1ccc(N(C)C)cc1 [TSA, trichostatin A]
p21 expression in NB4 cells: induced p21 expression
